Data as given in article PMC5908160, “Inhibition of sperm motility in male macaques with EP055, a potential non-hormonal male contraceptive” (PLoS ONE, 2018).

Assay: Blood constituents and health monitoring in rhesus males after EP055 infusion
Format: in vivo, Macaca mulatta
Set-up: Hematocrit: unit not given here
Details: post low dose 75–80 mg/kg
Text: The physical and behavioral condition of animals are monitored daily at ONPRC. Additional monitoring by Division of Comparative Medicine and/or clinical veterinary staff was provided immediately, at 1 hr, 2 hr and 6 hr post-administration of the contraceptive compound, and daily for up to 30 days after the final drug injection. Criteria used to assess animal health and welfare include: stool and urine quality and quantity, appetite and attitude (bright and alert, quiet, lethargic), pain (not eating, not moving, hunched over, lethargy/disinterest), vomiting, diarrhea, nausea, dehydration (unkempt coat, lack of urine production), and signs of wounds of injury. In addition, the ONPRC Standardized Pain Scoring system is used post-surgically to monitor an animal’s progress and improvement over time. Major criteria include animal appearance, posture, activity (including stool and urine production), vocalization and atypical behaviors.
Prior to infusion of EP055, each male was sedated with ketamine by the surgical staff at ONPRC and transported to the operating room. After positioning in dorsal recumbency, the male was intubated and placed under inhalant (isoflurane) anesthesia. Bilateral intravenous catheters were placed in cephalic veins, one for infusion and one for back-up. A percutaneous arterial line was placed in the right femoral artery for direct blood pressure measurement. Invasive blood pressure, heart rate, SpO2, and respirations were monitored by the surgical staff throughout the procedure. Initially, the low doses of EP055 in 5% DMSO-PBS 7.6 was infused by i.v. at 75-80 mg/kg, using a Medfusion 3500 pump (Smiths Medical, St. Paul, MN), and was started at a low flow rate ([…]). In 3 of 4 males, a 5-10% increase in blood pressure and heart rate were noted within the first 2-3 minutes of infusion of EP055. In these cases, the infusion was temporarily suspended until these parameters subsequently declined to normal. The infusion rate was then doubled to 1.2 ml/kg/min after 5-10 minutes and the final volume of EP055 infusate was administered. Blood pressure and heart rate remained normal throughout the rest of the infusion interval. The total volume of EP055 infusate ranged from 72 ml – 136 ml, depending upon the weight of the animal, and the duration of infusion was 10-13 minutes. Following completion of the infusion, all animals recovered normally. Animals were monitored by clinical veterinary staff immediately, at 1 hr, 2 hr and 6-8 hr post-infusion, and daily for up to 30 days after the final infusion of EP055. […] Two weeks after the infusion of the low dose and collection of the next set of baseline semen samples, males were infused with the high dose of EP055 (125-130 mg/kg) as described above, and monitored similarly.
Blood was collected from the brachial vein at the time of each semen collection, and used to determine complete blood counts and serum biochemistry tests (including electrolytes, glucose, lipids, proteins, enzymes and metabolic by-products) as performed in the Clinical Pathology Laboratory in the Division of Comparative Medicine at ONPRC.

For COC(=O)NNc1nc(Nc2ccc(NC(C)=O)c(O)c2)nc(SCC(=O)O)n1 [EP055], the GGT (6-8 hrs) was 70.5 ± 2.1- U/l, the GLUC (6-8 hrs) was 89.0 ± 6.7 mg/dL and the Hematocrit (6-8 hrs) was 44.3 ± 1.0. The Hemoglobin (6-8 hrs) was 14.4 ± 0.3 g/dL, the Leukocytes (6-8 hrs) was 12.8 ± 2.7 x 10^3/mm^3 and the Lymphocytes (6-8 hrs) was 18.8 ± 1.9%. For the same molecule, the MCH (6-8 hrs) was 24.5 ± 0.3 pg/cell, the MCHC (6-8 hrs) was 32.6 ± 0.1 g/dL and the MCV (6-8 hrs) was 75.1 ± 1.2 fl/cell. The Magnesium (6-8 hrs) was 1.8 ± 0.0 mg/dL, the Monocytes (6-8 hrs) was 4.9 ± 0.1% and the Neutrophils (6-8 hrs) was 9.5 ± 2.0 x 10^3/mm^3. For the same molecule, the Phosphorus (6-8 hrs) was 5.3 ± 0.3 mg/dL, the Platelets (6-8 hrs) was 268.5 ± 38.7 x 10^6 and the Potassium (6-8 hrs) was 3.9 ± 0.2 mEq/l. For the same molecule, the Sodium (6-8 hrs) was 149.0 ± 0.9 mEq/l, the “Total Bilirubin” value (6-8 hrs) was 0.2 ± 0.1 mg/dL and the “Total Protein” value (6-8 hrs) was 7.5 ± 0.0 g/dL. The Triglycerides (6-8 hrs) was 63.8 ± 5.7 mg/dL, the ALT (28-30 hrs) was 54.3 ± 3.8 U/l and the AST (28-30 hrs) was 51.0 ± 6.6 U/l. For the same molecule, the Albumin (28-30 hrs) was 4.8 ± 0.1 g/dL, the “Alkaline Phosphatase” value (28-30 hrs) was 128.5 ± 12.5 U/l and the BUN (28-30 hrs) was 15.0 ± 1.5 mg/dL. The Basophils (28-30 hrs) was 0.6 ± 0.1%, the CREAT (28-30 hrs) was 1.0 ± 0.0 mg/dL and the Chloride (28-30 hrs) was 110.3 ± 0.9 mEq/l. For the same molecule, the Cholesterol (28-30 hrs) was 149.5 ± 19.5 mg/dL, the Eosinophils (28-30 hrs) was 1.4 ± 0.1% and the Erythrocytes (28-30 hrs) was 5.9 ± 0.3 x 10^6/mm^3. The GGT (28-30 hrs) was 72.5 ± 3.9 U/l, the GLUC (28-30 hrs) was 90.0 ± 10.3 mg/dL and the Hematocrit (28-30 hrs) was 43.9 ± 1.9. For the same molecule, the Hemoglobin (28-30 hrs) was 14.4 ± 0.7 g/dL, the Leukocytes (28-30 hrs) was 11.8 ± 3.1 x 10^3/mm^3 and the Lymphocytes (28-30 hrs) was 31.1 ± 4.8%. The MCH (28-30 hrs) was 24.4 ± 0.2 pg/cell, the MCHC (28-30 hrs) was 32.7 ± 0.3 g/dL and the MCV (28-30 hrs) was 74.7 ± 1.0 fl/cell. For the same molecule, the Magnesium (28-30 hrs) was 1.7 ± 0.1 mg/dL, the Monocytes (28-30 hrs) was 5.7 ± 0.3% and the Neutrophils (28-30 hrs) was 7.2 ± 2.0 x 10^3/mm^3. For the same molecule, the Phosphorus (28-30 hrs) was 4.0 ± 0.5 mg/dL, the Platelets (28-30 hrs) was 185.8 ± 35.8 x 10^6 and the Potassium (28-30 hrs) was 4.2 ± 0.2 mEq/l. The Sodium (28-30 hrs) was 149.0 ± 1.1 mEq/l, the “Total Bilirubin” value (28-30 hrs) was 0.2 ± 0.0 mg/dL and the “Total Protein” value (28-30 hrs) was 7.7 ± 0.2 g/dL. It also gave a Triglycerides (28-30 hrs) of 75.3 ± 28.9 mg/dL, an ALT (78 hrs) of 60.3 ± 12.2 U/l and an AST (78 hrs) of 73.8 ± 33.6 U/l. For the same molecule, the Albumin (78 hrs) was 4.7 ± 0.1 g/dL, the “Alkaline Phosphatase” value (78 hrs) was 125.3 ± 16.3 U/l and the BUN (78 hrs) was 18.8 ± 3.2 mg/dL. It also gave a Basophils (78 hrs) of 0.6 ± 0.1%, a CREAT (78 hrs) of 1.0 ± 0.0 mg/dL and a Chloride (78 hrs) of 108.0 ± 0.8 mEq/l. The Cholesterol (78 hrs) was 144.0 ± 17.0 mg/dL, the Eosinophils (78 hrs) was 2.0 ± 0.5% and the Erythrocytes (78 hrs) was 5.5 ± 0.2 x 10^6/mm^3. It also gave a GGT (78 hrs) of 65.3 ± 2.7 U/l, a GLUC (78 hrs) of 91.5 ± 7.4 mg/dL and a Hematocrit (78 hrs) of 40.6 ± 0.8. For the same molecule, the Hemoglobin (78 hrs) was 13.3 ± 0.3 g/dL, the Leukocytes (78 hrs) was 11.2 ± 3.3 x 10^3/mm^3 and the Lymphocytes (78 hrs) was 33.7 ± 5.0%. The MCH (78 hrs) was 24.5 ± 0.3 pg/cell, the MCHC (78 hrs) was 32.8 ± 0.1 g/dL and the MCV (78 hrs) was 74.6 ± 1.2 fl/cell. For the same molecule, the Magnesium (78 hrs) was 1.8 ± 0.0 mg/dL, the Monocytes (78 hrs) was 5.5 ± 0.5% and the Neutrophils (78 hrs) was 6.6 ± 2.2 x 10^3/mm^3. For the same molecule, the Phosphorus (78 hrs) was 4.1 ± 0.6 mg/dL, the Platelets (78 hrs) was 270.8 ± 25.8 x 10^6 and the Potassium (78 hrs) was 4.0 ± 0.1 mEq/l. For the same molecule, the Sodium (78 hrs) was 147.0 ± 1.2 mEq/l, the “Total Bilirubin” value (78 hrs) was 0.2 ± 0.0 mg/dL and the “Total Protein” value (78 hrs) was 7.6 ± 0.1 g/dL. The Triglycerides (78 hrs) was 57.3 ± 14.1 mg/dL, the ALT (Recovery) was 31.7 ± 2.3 U/l and the AST (Recovery) was 42.3 ± 2.6 U/l. The Albumin (Recovery) was 4.3 ± 0.1 g/dL, the “Alkaline Phosphatase” value (Recovery) was 79.0 ± 2.3 U/l and the BUN (Recovery) was 16.5 ± 1.9 mg/dL. The Basophils (Recovery) was 0.5 ± 0.1%, the CREAT (Recovery) was 0.8 ± 0.0 mg/dL and the Chloride (Recovery) was 107.0 ± 0.0 mEq/l. The Cholesterol (Recovery) was 138.7 ± 19.3 mg/dL, the Eosinophils (Recovery) was 1.4 ± 0.3% and the Erythrocytes (Recovery) was 5.7 ± 0.2- x 10^6/mm^3. It also gave a GGT (Recovery) of 62.3 ± 1.8 U/l, a GLUC (Recovery) of 58.3 ± 4.5 mg/dL and a Hematocrit (Recovery) of 42.4 ± 1.1. The Hemoglobin (Recovery) was 13.8 ± 0.4 g/dL, the Leukocytes (Recovery) was 5.9 ± 1.0 x 10^3/mm^3 and the Lymphocytes (Recovery) was 44.8 ± 5.4%. It also gave an MCH (Recovery) of 24.1 ± 0.4 pg/cell, an MCHC (Recovery) of 32.5 ± 0.2 g/dL and an MCV (Recovery) of 74.1 ± 0.9 fl/cell. The Magnesium (Recovery) was 1.9 ± 0.1 mg/dL, the Monocytes (Recovery) was 6.4 ± 0.2% and the Neutrophils (Recovery) was 4.5 ± 1.7 x 10^3/mm^3. The Phosphorus (Recovery) was 5.1 ± 0.2 mg/dL, the Platelets (Recovery) was 295.7 ± 11.8 x 10^6 and the Potassium (Recovery) was 4.0 ± 0.1 mEq/l. For the same molecule, the Sodium (Recovery) was 146.7 ± 0.3 mEq/l, the “Total Bilirubin” value (Recovery) was 0.2 ± 0.0 mg/dL and the “Total Protein” value (Recovery) was 7.1 ± 0.1 g/dL. It also gave a Triglycerides (Recovery) of 38.0 ± 6.9 mg/dL.
